These results are taken from BindingDB's records for doi:10.7270/Q25D8Q92 (Burnham Center For Chemical Genomics, 2011).

For this assay, the target named is T1, Bcl-2-related protein A1 (Mus musculus, UniProt Q07440).
T1 sequence (Q07440 whole entry): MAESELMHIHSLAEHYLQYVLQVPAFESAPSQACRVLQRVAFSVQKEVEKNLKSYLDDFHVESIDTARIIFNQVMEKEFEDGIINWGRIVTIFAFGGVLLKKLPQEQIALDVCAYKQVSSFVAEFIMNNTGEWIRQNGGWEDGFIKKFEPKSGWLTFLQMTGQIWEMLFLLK
Nature of the assay: Bfl-1 inhibitors in counterscreen, dose response, biochemical (AID 504689). (The purpose of a counterscreen is to sort out artefacts and off-target activity.)
Usually IC50 stands for the point on the concentration scale where inhibition reaches its midpoint. Low readings indicate inhibition by little substance, high ones a need for much substance. As to `C#CCOCCOCCOCCNc1nc(N2CCN(C(=O)CCCCCCCCCCNC(=O)[C@H](CO)n3cc(CCCSC)nn3)CC2)nc(N2CCN(C(=O)CCCCCCCCCCNC(=O)[C@H](CCCCN)n3cc(CCO)nn3)CC2)n1` [SMR001318322], 14.2 µM corresponded to half-maximal inhibition (IC50).
As for `C#CCOCCOCCOCCNc1nc(N2CCN(C(=O)CCCCCCCCCCNC(=O)[C@H](CCCCN)n3cc(CCO)nn3)CC2)nc(N2CCN(C(=O)CCCCCCCCCCNC(=O)[C@@H]([C@H](C)O)n3cc(C)nn3)CC2)n1` [MLS002153685], the figure is above 20 µM; as for `COc1ccc2nc(C)cc(N=NCc3ccc(F)cc3)c2c1` [N-[(4-fluorophenyl)methylideneamino]-6-methoxy-2-methyl-4-quinolinamine], 17 µM; as for `N=C(N)C1=CC(=O)/C(=C/C=c2ccc(=C(N)N)cc2)C=C1` [(4E)-4-[2-[4-[bis(azanyl)methylidene]cyclohexa-2,5-dien-1-ylidene]ethylidene]-3-oxidanylidene-cyclohexa-1,5-diene-1-carboximidamide;2-oxidanylethanesulfonic acid], above 20 µM.
Regarding `COCCNC(=S)NNC1=c2cc(C)cc(C)c2=NC1=O` [MLS000774564], the IC50 was above 20 µM.
The molecule `COc1cc(C2c3c(-c4cccs4)n[nH]c3OC(=N)C2C#N)cc(OC)c1O` (stereo unspecified) [SMR000275523] showed an IC50 above 20 µM.
With `Cc1cc(C)c2c(c1)=C(NNC(=S)NCC1CCCO1)C(=O)N=2` (stereo unspecified), the IC50 was above 20 µM.
As for `C#CCOCCOCCOCCNc1nc(N2CCN(C(=O)CCCCCCCCCCNC(=O)Cn3cc(CCCCCN)nn3)CC2)nc(N2CCN(C(=O)CCCCCCCCCCNC(=O)Cn3cc(CCCCCN)nn3)CC2)n1` [SMR001231146], the figure is 13.3 µM; as for `CCOC(=O)c1c(C)c2c(n1C)CCCC2N=O` (stereo unspecified) [MLS000026784], above 20 µM.
`C#CCOCCOCCOCCNc1nc(N2CCN(C(=O)CCCCCCCCCCNC(=O)[C@@H](CCC(=O)O)n3cc(CCCCCN)nn3)CC2)nc(N2CCN(C(=O)CCCCCCCCCCNC(=O)[C@H]([C@@H](C)CC)n3cc(CCCCCN)nn3)CC2)n1` [KI-KE] showed an IC50 above 20 µM.
As for `CC(C)NC(=S)NNC1=c2cc(C(C)C)ccc2=NC1=O` [SMR000242097], the figure is above 20 µM.
As for `Oc1c(Cc2cnc[nH]2)[nH]c(=S)n1-c1ccccc1` [MLS001163810], the figure is above 20 µM; as for `CCOc1ccc(-c2csc(NC(=O)c3cccc(-n4c(O)ccc4O)c3)n2)cc1` [SMR000319795], above 20 µM; as for `O=C1N=c2ccccc2=C1NNC(=S)NCC1CCCO1` (stereo unspecified), above 20 µM.
As for `C#CCOCCOCCOCCNc1nc(N2CCN(C(=O)CCCCCCCCCCNC(=O)[C@H](CCCCN)n3cc(C)nn3)CC2)nc(N2CCN(C(=O)CCCCCCCCCCNC(=O)[C@H](CCCN=C(N)N)n3cc(C[C@@H](C)CC)nn3)CC2)n1` [MLS002153614], the figure is 6.58 µM.
Turning to `CC1CC(C)(C)N2C(=O)/C(=N\NC(N)=S)c3cccc1c32` (stereo unspecified) [SMR000414933], the IC50 was above 20 µM.
`Cc1cccc2c1C(=NNC(N)=S)C(=O)N2C1OC(CO)C(O)C(O)C1O` (stereo unspecified) [The compound has not trivial name.] had an IC50 above 20 µM.
The molecule `C#CCOCCOCCOCCNc1nc(N2CCN(C(=O)CCCCCCCCCCNC(=O)[C@H](CCCCN)n3cc(CCO)nn3)CC2)nc(N2CCN(C(=O)CCCCCCCCCCNC(=O)[C@H](CCCCN)n3cc(CCO)nn3)CC2)n1` [MLS002153615] gave an IC50 above 20 µM.
As for `C#CCOCCOCCOCCNc1nc(N2CCN(C(=O)CCCCCCCCCCNC(=O)[C@H](CCCCN)n3cc(CCCC(=O)O)nn3)CC2)nc(N2CCN(C(=O)CCCCCCCCCCNC(=O)[C@H](CCCN=C(N)N)n3cc(C[C@@H](C)CC)nn3)CC2)n1` [EK-IR], the figure is 13.9 µM; as for `CCNC(=S)NNC1=c2cc(C(C)C)ccc2=NC1=O` [1-ethyl-3-[(2-oxo-5-propan-2-yl-3-indolyl)amino]thiourea], above 20 µM; as for `C#CCOCCOCCOCCNc1nc(N2CCN(C(=O)[C@H](Cc3cc4ccccc4[nH]3)n3cc([C@@H](N)C(C)CC)nn3)CC2)nc(N2CCN(C(=O)[C@H](CCCCN)n3cc([C@@H](N)CC(C)C)nn3)CC2)n1` (stereo partly specified) [MLS000562581], above 20 µM.
